Data taken from ChEMBL document CHEMBL5728681, “Macrocyclic compounds as TRK kinase inhibitors and uses thereof” (2021).

Target: High affinity nerve growth factor receptor (Homo sapiens, UniProt P04629)
Assay: HotSpot Assay: The HotSpot assay platform was used to measure kinase/inhibitor interactions as described in Anastassiadis et al., Nat Biotechnol. 29:1039-45, 2011. In brief, for each reaction, kinase and substrate were mixed in a buffer containing 20 mM HEPES (pH 7.5), 10 mM MgCl2, 1 mM EGTA, 0.02% Brij35, 0.02 mg/mL BSA, 0.1 mM Na3VO4, 2 mM DTT, and 1% DMSO. Compounds were then added to each reaction mixture. After a 20-min incubation, ATP (Sigma-Aldrich) and [γ-33P] ATP (PerkinElmer) were added at a final total concentration of 100 μM. Reactions were carried out at room temperature for 2 h and spotted onto P81 ion exchange cellulose chromatography paper (Whatman). Filter paper was washed in 0.75% phosphoric acid to remove unincorporated ATP. The percent remaining kinase activity relative to a vehicle-containing (DMSO) kinase reaction was calculated for each kinase/inhibitor pair.

Sequence of High affinity nerve growth factor receptor (P04629 whole entry): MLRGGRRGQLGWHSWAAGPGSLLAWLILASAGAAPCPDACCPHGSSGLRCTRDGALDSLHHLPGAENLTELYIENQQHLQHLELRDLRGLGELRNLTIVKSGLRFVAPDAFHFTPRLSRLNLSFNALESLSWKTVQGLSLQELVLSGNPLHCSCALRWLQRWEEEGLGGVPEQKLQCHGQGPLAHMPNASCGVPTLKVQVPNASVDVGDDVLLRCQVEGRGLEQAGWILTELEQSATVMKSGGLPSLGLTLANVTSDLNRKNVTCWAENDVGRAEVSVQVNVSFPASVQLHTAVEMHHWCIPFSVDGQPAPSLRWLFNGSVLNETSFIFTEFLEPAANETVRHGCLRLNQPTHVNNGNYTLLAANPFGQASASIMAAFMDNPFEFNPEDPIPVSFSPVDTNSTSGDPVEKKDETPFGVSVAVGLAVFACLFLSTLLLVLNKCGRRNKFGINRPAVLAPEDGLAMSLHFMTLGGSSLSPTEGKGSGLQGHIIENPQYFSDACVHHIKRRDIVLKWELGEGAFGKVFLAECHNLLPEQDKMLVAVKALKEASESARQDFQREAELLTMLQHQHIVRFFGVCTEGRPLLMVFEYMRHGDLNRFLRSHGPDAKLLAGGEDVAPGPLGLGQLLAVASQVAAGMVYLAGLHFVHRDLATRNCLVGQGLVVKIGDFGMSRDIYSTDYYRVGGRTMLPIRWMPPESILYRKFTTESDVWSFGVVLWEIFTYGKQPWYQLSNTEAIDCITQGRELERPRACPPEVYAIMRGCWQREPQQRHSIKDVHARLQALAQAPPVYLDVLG

IC50: < 100 nM
Compound: C=C1c2ncc(F)cc2[C@H]2CCCN2c2ccn3ncc(c3n2)C(=O)N[C@@H]1C
